Drawing on patent US20050048007A1, “Plaque reducing composition” (INOBYS LTD., priority 2000, published 2005), this text covers MIC for 1 compound.

SMILES strings stand for the structures. Converted amounts (≈) assume the structure as drawn.

One may read the MIC as the lowest concentration that inhibits growth of the organism. Read a high MIC as weaker potency.

Holding throughout (assay): MIC by serial dilutions in BHI broth (NCCLS)
What all share (assay type): cell-based

In one assay the test system is S. sobrinus. The conditions noted are these: Streptococcus sobrinus, 37.5 degrees C., 24 hr, turbidity. The source says:
(§1) Efficacy of this delivery system was shown as follows: 1. Minimum Inhibitory Concentration (MIC)
(§2) High numbers of microorganisms inhabit the oral cavity. Aerobic and anerobic bacteria combine to produce plaque, the soft sticky film adhering to the surface of the teeth. These same bacteria produce sulfur compounds responsible for oral malodor. MIC studies are commonly used to evaluate the potential effectiveness of oral washes and rinses in reducing undesirable bacteria in the oral cavity.
(§3) This […] study evaluates and compares the minimum inhibitory concentration at which two antimicrobial preparations (Solutions A & B) prevent the growth of oral microorganisms recognized as typical of those responsible for plaque and oral malodor formation. Solution A represents Example 1 (above); solution B, 0.1% chlorhexidine, represents a bench mark for efficacy, in that it is commonly accepted and used by oral care professionals to reduce plaque and malodor causing microbes.
(§4) MICs were established using the method of serial dilutions in BHI broth as established by NCCLS (National Committee for Clinical Laboratory Standards). Viable isolates of select strains of oral microbes were obtained commercially and cultured for ongoing use in the study. Serial dilutions of each of the test solutions were added to test tubes containing cultures of each isolate in BHI broth. Tubes were incubated at 37.5 degrees C. for 24 hr. and evaluated for signs of microbial growth (turbidity). Blank tubes of BHI broth, with and without microbial inoculates, were concomitantly run as a control for process sterility and viability.

In a further assay the test system is K. pneumonia. The settings on record: Klebsiella pneumoniae, 37.5 degrees C., 24 hr, turbidity.
Excerpt: as §1, §2, §3, §4

Another assay has as its system S. mutans. The settings on record: Streptococcus mutans, 37.5 degrees C., 24 hr, turbidity.
Excerpt: as §1, §2, §3, §4

The test system of the next assay is V. atypica. The settings on record: 37.5 degrees C., 24 hr, turbidity.
Excerpt: as §1, §2, §3, §4

For a further assay, the system named is S. sanguinis. The settings on record: Streptococcus sanguinis, 37.5 degrees C., 24 hr, turbidity.
Excerpt: as §1, §2, §3, §4

The subject of another assay is A. viscosus. The conditions noted are these: Actinomyces viscosus, 37.5 degrees C., 24 hr, turbidity.
Excerpt: as §1, §2, §3, §4

Regarding `[H]/N=C(\N/C(=N/[H])NCCCCCCNC(=N)NC(=N)Nc1ccc(Cl)cc1)Nc1ccc(Cl)cc1` [0.1% CHX, chlorhexidine], the minimum inhibitory concentration (MIC) stood at 80 µg/mL (≈ 158 µM) against S. sobrinus; 650 µg/mL (≈ 1290 µM) in the assay with K. pneumonia; 320 µg/mL (≈ 633 µM) in the assay on S. mutans; 160 µg/mL (≈ 317 µM) in the assay with V. atypica; 80 µg/mL (≈ 158 µM) in the assay on S. sanguinis; 320 µg/mL (≈ 633 µM) against A. viscosus.
